Assay results as given in patent US20240208992A1, “MACROCYCLES AS CFTR MODULATORS” (Idorsia Pharmaceuticals Ltd, priority 2021, published 2024).

Target: human F508del-CFTR (Homo sapiens, UniProt P13569, DEL508-508)
Experiment: F508del-CFTR cell surface expression (corrector activity), DiscoveRx ß-galactosidase complementation chemiluminescence assay in recombinant U2OS cell line;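 also: U2OS cells co-expressing ProLink-tagged F508del-CFTR and a membrane-anchored enzyme acceptor, where more surface CFTR restores β-galactosidase activity measured by chemiluminescence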
Conditions: for EC50: EC50, F508del-CFTR cell surface expression, U2OS cells, 16h compound incubation, geomean values; for Emax: U2OS, in relation to Emax of corrector lumacaftor (=100%), arithmetic mean values

Sequence of human F508del-CFTR (P13569 with tags, fused parts or gaps DEL508-508): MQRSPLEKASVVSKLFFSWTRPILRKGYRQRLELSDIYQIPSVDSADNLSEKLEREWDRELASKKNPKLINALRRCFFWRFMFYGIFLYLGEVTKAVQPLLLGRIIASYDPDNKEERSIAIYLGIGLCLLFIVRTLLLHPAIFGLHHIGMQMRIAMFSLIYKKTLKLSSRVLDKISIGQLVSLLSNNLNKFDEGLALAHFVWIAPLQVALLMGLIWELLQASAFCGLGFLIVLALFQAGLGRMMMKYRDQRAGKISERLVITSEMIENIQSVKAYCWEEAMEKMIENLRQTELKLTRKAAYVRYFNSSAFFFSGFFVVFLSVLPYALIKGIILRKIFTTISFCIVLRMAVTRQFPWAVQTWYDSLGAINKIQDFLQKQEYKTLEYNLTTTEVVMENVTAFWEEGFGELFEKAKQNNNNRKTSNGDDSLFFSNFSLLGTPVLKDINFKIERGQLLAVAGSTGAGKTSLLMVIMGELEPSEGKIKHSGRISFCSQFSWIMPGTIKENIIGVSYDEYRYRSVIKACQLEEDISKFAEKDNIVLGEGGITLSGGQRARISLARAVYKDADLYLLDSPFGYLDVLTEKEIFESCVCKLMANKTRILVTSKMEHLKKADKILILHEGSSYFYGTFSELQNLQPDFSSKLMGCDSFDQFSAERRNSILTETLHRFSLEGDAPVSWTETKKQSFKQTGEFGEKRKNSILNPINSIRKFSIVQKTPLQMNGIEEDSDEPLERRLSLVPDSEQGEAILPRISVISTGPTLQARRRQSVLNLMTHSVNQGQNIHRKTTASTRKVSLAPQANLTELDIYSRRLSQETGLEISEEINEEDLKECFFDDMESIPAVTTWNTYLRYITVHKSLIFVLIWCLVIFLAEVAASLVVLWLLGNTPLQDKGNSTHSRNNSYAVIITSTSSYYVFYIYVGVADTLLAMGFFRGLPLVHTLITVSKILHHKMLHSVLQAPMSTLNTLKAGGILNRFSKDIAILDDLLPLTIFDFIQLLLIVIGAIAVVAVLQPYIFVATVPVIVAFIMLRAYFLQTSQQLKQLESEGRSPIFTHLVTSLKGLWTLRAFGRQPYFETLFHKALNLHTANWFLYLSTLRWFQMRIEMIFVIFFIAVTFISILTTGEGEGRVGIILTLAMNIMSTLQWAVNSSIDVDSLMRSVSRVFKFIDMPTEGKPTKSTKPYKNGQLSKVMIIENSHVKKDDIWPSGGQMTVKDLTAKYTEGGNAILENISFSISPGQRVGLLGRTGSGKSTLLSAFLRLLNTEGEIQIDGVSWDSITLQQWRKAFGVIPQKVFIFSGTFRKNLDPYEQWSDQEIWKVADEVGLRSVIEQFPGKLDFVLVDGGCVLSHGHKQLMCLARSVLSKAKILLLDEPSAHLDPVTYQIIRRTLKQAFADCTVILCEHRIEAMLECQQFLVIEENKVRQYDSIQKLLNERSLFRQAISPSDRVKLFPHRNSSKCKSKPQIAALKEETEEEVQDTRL

| Compound | EC50 [nM] | Emax [%] |
| --- | --- | --- |
| CCN1CCN2C(=O)[C@H](CC(C)C)N(C)C(=O)C[C@@H](C(=O)NCCc3cccc(OC)c3)NC(=O)c3c(OC)cccc3OC[C@@H](Cc3ccccc3)NC(=O)[C@H]2C1 [Example 605, (7S,11S,20R,22aR)-20-benzyl-2-ethyl-7-isobutyl-14-methoxy-N-(3-methoxyphenethyl)-8-methyl-6,9,13,22-tetraoxo-1,3,4,6,7,8,9,10,11,12,13,19,20,21,22,22a-hexadecahydro-2H-benzo[p]pyrazino[2,1-f][1]oxa[4,7,10,14]tetraazacycloheptadecine-11-carboxamide] | 637 | 257 |
| Cc1cc(CCNC(=O)[C@@H]2CC(=O)N(C)[C@@H](CC(C)C)C(=O)N3CCCC[C@H]3C(=O)N[C@H](Cc3ccccc3)COc3ccc4ccccc4c3C(=O)N2)on1 [Example 606, (4aS,7R,18S,22S)-7-benzyl-22-isobutyl-21-methyl-N-(2-(3-methylisoxazol-5-yl)ethyl)-5,16,20,23-tetraoxo-2,3,4,4a,5,6,7,8,16,17,18,19,20,21,22,23-hexadecahydro-1H-naphtho[1,2-p]pyrido[2,1-f][1]oxa[4,7,10,14]tetraazacycloheptadecine-18-carboxamide] | 521 | 150 |
| Cc1cc(CCNC(=O)[C@@H]2CC(=O)N(C)[C@@H](CC(C)C)C(=O)N3CCCC[C@@H]3C(=O)N[C@H](Cc3ccccc3)COc3ccc4ccccc4c3C(=O)N2)on1 [Example 607, (4aR,7R,18S,22S)-7-benzyl-22-isobutyl-21-methyl-N-(2-(3-methylisoxazol-5-yl)ethyl)-5,16,20,23-tetraoxo-2,3,4,4a,5,6,7,8,16,17,18,19,20,21,22,23-hexadecahydro-1H-naphtho[1,2-p]pyrido[2,1-f][1]oxa[4,7,10,14]tetraazacycloheptadecine-18-carboxamide] | 121 | 283 |
| Cc1cc(CCNC(=O)[C@@H]2CC(=O)N(C)[C@@H](CC(C)C)C(=O)N3CCOC[C@@H]3C(=O)N[C@H](Cc3ccccc3)COc3ccc4ccccc4c3C(=O)N2)on1 [Example 608, (4aR,7R,18S,22S)-7-benzyl-22-isobutyl-21-methyl-N-(2-(3-methylisoxazol-5-yl)ethyl)-5,16,20,23-tetraoxo-1,2,4,4a,5,6,7,8,16,17,18,19,20,21,22,23-hexadecahydronaphtho[1,2-p][1,4]oxazino[3,4-f][1]oxa[4,7,10,14]tetraazacycloheptadecine-18-carboxamide] | 804 | 267 |
| COc1cc(OC)c2c(c1)OC[C@@H](Cc1ccccc1)NC(=O)[C@H]1CCCCN1C(=O)[C@H](CC(C)C)N(C)C(=O)C[C@@H](C(=O)NCCc1cc(C)no1)NC2=O [Example 609, (7S,11S,20R,22aR)-20-benzyl-7-isobutyl-14,16-dimethoxy-8-methyl-N-(2-(3-methylisoxazol-5-yl)ethyl)-6,9,13,22-tetraoxo-1,3,4,6,7,8,9,10,11,12,13,19,20,21,22,22a-hexadecahydro-2H-benzo[p]pyrido[2,1-f][1]oxa[4,7,10,14]tetraazacycloheptadecine-11-carboxamide] | 574 | 320 |
| CC(C)C[C@H]1C(=O)N(CCC2CCCCC2)CC(=O)N[C@H](Cc2ccccc2)COc2cnc3ccccc3c2C(=O)N[C@H](C(=O)NCCc2ccc3c(c2)OCO3)CC(=O)N1C [Example 610, (3S,7S,13R)-N-(2-(benzo[d][1,3]dioxol-5-yl)ethyl)-13-benzyl-9-(2-cyclohexylethyl)-7-isobutyl-6-methyl-1,5,8,11-tetraoxo-1,2,3,4,5,6,7,8,9,10,11,12,13,14-tetradecahydro-[1]oxa[4,7,10,14]tetraazacycloheptadecino[17,16-c]quinoline-3-carboxamide] | 89 | 311 |
| COc1cccc(CCNC(=O)[C@@H]2CC(=O)N(C)[C@@H](CC(C)C)C(=O)N3CCN(C(C)C)C[C@@H]3C(=O)N[C@H](Cc3ccccc3)COc3cccc(OC)c3C(=O)N2)c1 [Example 611, (7S,11S,20R,22aR)-20-benzyl-7-isobutyl-2-isopropyl-14-methoxy-N-(3-methoxyphenethyl)-8-methyl-6,9,13,22-tetraoxo-1,3,4,6,7,8,9,10,11,12,13,19,20,21,22,22a-hexadecahydro-2H-benzo[p]pyrazino[2,1-f][1]oxa[4,7,10,14]tetraazacycloheptadecine-11-carboxamide] | 344 | 251 |
| COc1cccc(CCNC(=O)[C@@H]2CC(=O)N(C)[C@@H](CC(C)C)C(=O)N3CCN(CC(C)C)C[C@@H]3C(=O)N[C@H](Cc3ccccc3)COc3cccc(OC)c3C(=O)N2)c1 [Example 612, (7S,11S,20R,22aR)-20-benzyl-2,7-diisobutyl-14-methoxy-N-(3-methoxyphenethyl)-8-methyl-6,9,13,22-tetraoxo-1,3,4,6,7,8,9,10,11,12,13,19,20,21,22,22a-hexadecahydro-2H-benzo[p]pyrazino[2,1-f][1]oxa[4,7,10,14]tetraazacycloheptadecine-11-carboxamide] | 148 | 298 |
| COc1cc(CCNC(=O)[C@@H]2CC(=O)N(C)[C@@H](CC(C)C)C(=O)N3CCN(CC(C)C)C[C@@H]3C(=O)N[C@H](Cc3ccccc3)COc3ccc4ccccc4c3C(=O)N2)cc(OC)c1 [Example 613, (4aR,7R,18S,22S)-7-benzyl-N-(3,5-dimethoxyphenethyl)-3,22-diisobutyl-21-methyl-5,16,20,23-tetraoxo-2,3,4,4a,5,6,7,8,16,17,18,19,20,21,22,23-hexadecahydro-1H-naphtho[1,2-p]pyrazino[2,1-f][1]oxa[4,7,10,14]tetraazacycloheptadecine-18-carboxamide] | 82 | 312 |
| COc1cccc(CCNC(=O)[C@@H]2CC(=O)N(C)[C@@H](CC(C)C)C(=O)N3CCCC[C@@H]3C(=O)N[C@H](Cc3ccccc3)COc3ccc4nc(C)oc4c3C(=O)N2)c1 [Example 614, (8S,12S,18aR,21R)-21-benzyl-12-isobutyl-N-(3-methoxyphenethyl)-4,11-dimethyl-6,10,13,19-tetraoxo-6,7,8,9,10,11,12,13,16,17,18,18a,19,20,21,22-hexadecahydro-15H-oxazolo[4′,5′:5,6]benzo[1,2-p]pyrido[2,1-f][1]oxa[4,7,10,14]tetraazacycloheptadecine-8-carboxamide] | 484 | 317 |
| COc1cccc(CCNC(=O)[C@@H]2CC(=O)N(C)[C@@H](CC(C)C)C(=O)N3CCCC[C@H]3C(=O)N[C@H](Cc3ccccc3)COc3ccc4nc(C)oc4c3C(=O)N2)c1 [Example 615, (8S,12S,18aS,21R)-21-benzyl-12-isobutyl-N-(3-methoxyphenethyl)-4,11-dimethyl-6,10,13,19-tetraoxo-6,7,8,9,10,11,12,13,16,17,18,18a,19,20,21,22-hexadecahydro-15H-oxazolo[4′,5′:5,6]benzo[1,2-p]pyrido[2,1-f][1]oxa[4,7,10,14]tetraazacycloheptadecine-8-carboxamide] | 465 | 170 |
| CC(C)C[C@H]1C(=O)N(C)CC(=O)N[C@H](Cc2ccccc2)COc2cccc(OC(F)F)c2C(=O)N[C@H](C(=O)NCCc2ccc3c(c2)OCO3)CC(=O)N1C [Example 616, (3R,9S,13S)-N-(2-(benzo[d][1,3]dioxol-5-yl)ethyl)-3-benzyl-16-(difluoromethoxy)-9-isobutyl-7,10-dimethyl-5,8,11,15-tetraoxo-2,3,4,5,6,7,8,9,10,11,12,13,14,15-tetradecahydrobenzo[p][1]oxa[4,7,10,14]tetraazacycloheptadecine-13-carboxamide] | 581 | 92 |
| Cc1cc(CCNC(=O)[C@@H]2CC(=O)N(C)[C@@H](CC(C)C)C(=O)N3CCN(CC(C)C)C[C@@H]3C(=O)N[C@H](Cc3ccccc3)COc3ccc4ccccc4c3C(=O)N2)on1 [Example 617, (4aR,7R,18S,22S)-7-benzyl-3,22-diisobutyl-21-methyl-N-(2-(3-methylisoxazol-5-yl)ethyl)-5,16,20,23-tetraoxo-2,3,4,4a,5,6,7,8,16,17,18,19,20,21,22,23-hexadecahydro-1H-naphtho[1,2-p]pyrazino[2,1-f][1]oxa[4,7,10,14]tetraazacycloheptadecine-18-carboxamide] | 75 | 318 |
| COc1cc(CCNC(=O)[C@@H]2CC(=O)N(C)[C@@H](CC(C)C)C(=O)N3CCN(C(C)C)C[C@@H]3C(=O)N[C@H](Cc3ccccc3)COc3ccc4ccccc4c3C(=O)N2)cc(OC)c1 [Example 618, (4aR,7R,18S,22S)-7-benzyl-N-(3,5-dimethoxyphenethyl)-22-isobutyl-3-isopropyl-21-methyl-5,16,20,23-tetraoxo-2,3,4,4a,5,6,7,8,16,17,18,19,20,21,22,23-hexadecahydro-1H-naphtho[1,2-p]pyrazino[2,1-f][1]oxa[4,7,10,14]tetraazacycloheptadecine-18-carboxamide] | 80 | 309 |
| COc1cccc(CCNC(=O)[C@@H]2CC(=O)N(C)[C@@H](CC(C)C)C(=O)N3CCN(CC(C)C)C[C@@H]3C(=O)N[C@H](Cc3ccccc3)COc3ccc4nc(C)oc4c3C(=O)N2)c1 [Example 619, (8S,12S,18aR,21R)-21-benzyl-12,17-diisobutyl-N-(3-methoxyphenethyl)-4,11-dimethyl-6,10,13,19-tetraoxo-6,7,8,9,10,11,12,13,16,17,18,18a,19,20,21,22-hexadecahydro-15H-oxazolo[4′,5′:5,6]benzo[1,2-p]pyrazino[2,1-f][1]oxa[4,7,10,14]tetraazacycloheptadecine-8-carboxamide] | 155 | 322 |
| Cc1cc(CCNC(=O)[C@@H]2CC(=O)N(C)[C@@H](CC(C)C)C(=O)N3CCN(CC(C)C)C[C@@H]3C(=O)N[C@H](Cc3ccccc3)COc3ccc4nc(C)oc4c3C(=O)N2)on1 [Example 620, (8S,12S,18aR,21R)-21-benzyl-12,17-diisobutyl-4,11-dimethyl-N-(2-(3-methylisoxazol-5-yl)ethyl)-6,10,13,19-tetraoxo-6,7,8,9,10,11,12,13,16,17,18,18a,19,20,21,22-hexadecahydro-15H-oxazolo[4′,5′:5,6]benzo[1,2-p]pyrazino[2,1-f][1]oxa[4,7,10,14]tetraazacycloheptadecine-8-carboxamide] | 316 | 266 |
